Laboratory results as given in US7713994B2 (Wyeth LLC, priority 2005, dated 2010).
Counter-ions that a name gives are not always drawn. Like-named read-outs stand apart in the source and are kept apart here.

Columns and labels:
cyclin B/CDK1 enzyme = target: T1, cyclin B/CDK1 enzyme (Homo sapiens, UniProt P06493); assay: CDK1 ELISA kinase assay (phospho-Rb ser 795 detection); assay type: biochemical
T1 construct: purchased New England BioLabs; host or cells: Sf9 insect cells, recombinant baculovirus
In short: (§1)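 ELISA format: plate-bound GST-Rb, 200 μM ATP, Sf9 cyclin/CDK enzyme, 1 h at 30° C; then anti-pRb Ser795 primary overnight at 4° C, HRP secondary, TMB. IC50 after no-substrate background subtraction.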

cyclin D1/cdk 4 enzyme = target: T2, cyclin D1/cdk 4 enzyme (Homo sapiens, UniProt P11802); assay: CDK4 ELISA kinase assay (phospho-Rb ser 795 detection); assay type: biochemical
T2 construct: made in house; host or cells: Sf9 insect cells, recombinant baculovirus
In short: as §1

BT474 = assay: Cytotoxicity assay (SRB), BT474; assay type: cell-based
In short: (§2)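 Protein staining with sulforhodamine B after cold TCA fixation served as the survival endpoint (A540, relative to untreated cells). Before staining, cells were incubated with compound at 37 °C, 7% CO2 for 3 days, or 6 days for BT474.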

MCF-7 = assay: Cytotoxicity assay (SRB), MCF-7; assay type: cell-based; conditions: Homo sapiens, MCF7, 72 h, MCF-7 cells, SRB, read-out: In Vitro Cellular Activity IC50 MCF-7
In short: as §2

HCT-116 = assay: Cytotoxicity assay (SRB), HCT-116; assay type: cell-based; conditions: Homo sapiens, HCT-116, 72 h, HCT116 cells, SRB, read-out: In Vitro Cellular Activity IC50 HCT116
In short: as §2

cyclin E/CDK2 enzyme = target: T3, cyclin E/CDK2 enzyme (Homo sapiens, UniProt P24941); assay: CDK2 ELISA kinase assay (phospho-Rb ser 795 detection); assay type: biochemical
T3 construct: made in house; host or cells: Sf9 insect cells, recombinant baculovirus
In short: as §1

LoVo = assay: Cytotoxicity assay (SRB), LoVo; assay type: cell-based; conditions: Homo sapiens, LoVo, 72 h, LoVo cells, SRB, read-out: In Vitro Cellular Activity IC50 LOVO
In short: as §2

[1] = Homo sapiens, BT-474, 144 h, BT474 cells, 6 days, SRB; read-out: In Vitro Cellular Activity IC50 BT474
[2] = In Vitro Enzyme Assays, read-out: CDK1 IC50
[3] = In Vitro Enzyme Assays, 200 μM ATP, read-out: CDK4 IC50
[4] = In Vitro Enzyme Assays, read-out: CDK2 IC50
[5] = Homo sapiens, BT-474, 144 h, BT474 cells, SRB, 6 days; read-out: In Vitro Cellular Activity IC50 BT474

T1 sequence (P06493 whole entry): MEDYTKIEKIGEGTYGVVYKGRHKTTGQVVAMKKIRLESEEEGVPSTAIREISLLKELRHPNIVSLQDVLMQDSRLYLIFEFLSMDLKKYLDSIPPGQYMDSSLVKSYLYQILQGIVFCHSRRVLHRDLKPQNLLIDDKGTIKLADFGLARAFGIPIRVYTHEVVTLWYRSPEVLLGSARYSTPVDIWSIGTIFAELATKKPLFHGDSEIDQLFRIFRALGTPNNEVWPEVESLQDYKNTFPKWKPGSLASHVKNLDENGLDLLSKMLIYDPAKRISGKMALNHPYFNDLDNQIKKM
T1 sequence (P14635 whole entry partner): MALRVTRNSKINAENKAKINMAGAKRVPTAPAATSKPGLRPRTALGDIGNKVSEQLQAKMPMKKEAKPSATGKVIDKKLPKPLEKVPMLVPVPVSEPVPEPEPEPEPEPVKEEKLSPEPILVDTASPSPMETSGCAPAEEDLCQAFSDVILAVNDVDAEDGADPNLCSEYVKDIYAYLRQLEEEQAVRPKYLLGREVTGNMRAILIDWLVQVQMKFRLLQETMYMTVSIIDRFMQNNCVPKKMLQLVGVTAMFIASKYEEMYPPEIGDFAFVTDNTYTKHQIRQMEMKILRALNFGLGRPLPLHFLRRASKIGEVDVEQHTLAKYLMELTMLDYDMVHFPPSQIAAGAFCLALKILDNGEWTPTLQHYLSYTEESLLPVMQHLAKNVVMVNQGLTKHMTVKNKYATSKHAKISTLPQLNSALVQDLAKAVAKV
T2 sequence (P11802 whole entry, species assumed): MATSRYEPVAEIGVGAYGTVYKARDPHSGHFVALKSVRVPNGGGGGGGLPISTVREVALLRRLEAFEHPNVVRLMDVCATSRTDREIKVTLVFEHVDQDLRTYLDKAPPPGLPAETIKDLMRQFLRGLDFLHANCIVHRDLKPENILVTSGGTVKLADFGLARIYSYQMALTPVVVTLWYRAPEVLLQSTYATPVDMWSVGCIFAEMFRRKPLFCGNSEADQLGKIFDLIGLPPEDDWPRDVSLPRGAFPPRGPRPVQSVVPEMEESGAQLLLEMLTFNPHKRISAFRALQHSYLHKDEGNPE
T2 sequence (P24385 whole entry partner, species assumed): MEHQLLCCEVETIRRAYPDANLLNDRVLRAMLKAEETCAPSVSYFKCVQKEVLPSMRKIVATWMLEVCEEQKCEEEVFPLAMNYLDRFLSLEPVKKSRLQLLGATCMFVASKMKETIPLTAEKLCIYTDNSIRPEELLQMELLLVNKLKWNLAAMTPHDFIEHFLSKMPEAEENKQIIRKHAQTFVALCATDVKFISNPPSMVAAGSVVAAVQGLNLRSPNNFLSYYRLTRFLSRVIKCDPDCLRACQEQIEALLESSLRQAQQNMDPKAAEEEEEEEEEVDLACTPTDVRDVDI

COc1cccc(-c2ccc3c(c2)/C(=C/Nc2ccc(CN4CCCCC4)cc2)C(=O)NC3=O)c1 (hydrate or solvate) [Example 117, (4Z)-6-(3-Methoxyphenyl)-4-({[4-(piperidin-1-ylmethyl)phenyl]amino}methylene)-isoquinoline-1,3(2H,4H)-dione]
melting point: 169 to 170 °C

CN1CCN(CCCNC=C2C(=O)NC(=O)c3ccc(-n4cccc4)cc32)CC1 (as salt: TFA) [Example 279, 4-{[3-(4-Methyl-piperazin-1-yl)-propylamino]-methylene}-6-pyrrol-1-yl-4H-isoquinoline-1,3-dione]
melting point: 207 to 210 °C

CN1CCN(c2ccc(N/C=C3\C(=O)NC(=O)c4ccc(-c5ccc(C=O)o5)cc43)cc2)CC1 (hydrate or solvate) [Example 124, 5-[(4Z)-4-({[4-(4-Methylpiperazin-1-yl)phenyl]amino}methylene)-1,3-dioxo-1,2,3,4-tetrahydroisoquinolin-6-yl]-2-furaldehyde]
melting point: 218 to 220 °C

COc1ccc(CN/C=C2\C(=O)NC(=O)c3ccccc32)cc1O (as salt: hydrochloride) [Example 98, (4Z)-4-{[(3-Hydroxy-4-methoxybenzyl)amino]methylene}isoquinoline-1,3(2H,4H)-dione]
melting point: 192 to 193 °C

O=C1NC(=O)c2ccc(-c3ccsc3)cc2/C1=C/Nc1ccc(CN2CCCCC2)cc1 (hydrate or solvate) [Example 104, (4Z)-4-({[4-(Piperidin-1-ylmethyl)phenyl]amino}methylene)-6-thien-3-ylisoquinoline-1,3(2H,4H)-dione]
melting point: 166 to 167 °C

CN1CCN(c2ccc(N/C=C3\C(=O)NC(=O)c4ccc(-c5ccoc5)cc43)cc2)CC1 (as salt: sodium) [Example 236, (4Z)-6-(3-Furyl)-4-({[4-(4-methylpiperazin-1-yl)phenyl]amino}methylene)isoquinoline-1,3(2H,4H)-dione]
melting point: 190 to 191 °C

COc1ccc(-c2ccc3c(c2)/C(=C/Nc2ccc(CN4CCCCC4)cc2)C(=O)NC3=O)cc1 (hydrate or solvate) [Example 116, (4Z)-6-(4-Methoxyphenyl)-4-({[4-(piperidin-1-ylmethyl)phenyl]amino}methylene)-isoquinoline-1,3(2H,4H)-dione]
melting point: 168 to 169 °C

O=C1NCc2ccccc2/C1=C/Nc1ccc(-c2c[nH]cn2)cc1 [Example 3, (4Z)-4-({[4-(1H-Imidazol-4-yl)phenyl]amino}methylene)-1,4-dihydro-3(2H)-isoquinolinone]
melting point: 151 to 152 °C (dec.)

O=C1NC(=O)c2ccc([N+](=O)[O-])cc2/C1=C/Nc1ccc(CN2CCCCC2)cc1 [Example 42, (4Z)-6-Nitro-4-{[(4-piperidin-1-ylmethyl)phenyl]amino}methyleneisoquinoline-1,3(2H,4H)-dione]
melting point: 225 to 235 °C (dec.)

CN1CCN(c2ccc(N/C=C3\C(=O)NC(=O)c4ccc(C(=O)O)cc43)cc2)CC1 [Example 51, (4Z)-4-({[4-(4-Methylpiperazin-1-yl)phenyl]amino}methylene)-1,3-dioxo-1,2,3,4-tetrahydroisoquinoline-6-carboxylic acid]
melting point: 278 to 280 °C

C[C@@H]1CN(c2ccc(N/C=C3\C(=O)NC(=O)c4ccc(-c5ccc(F)cc5)cc43)cc2)C[C@H](C)N1 (as salt: sodium) [Example 205, (4Z)-4-({[4-(3,5-Dimethylpiperazin-1-yl)phenyl]amino}methylene)-6-(4-fluorophenyl)-isoquinoline-1,3(2H,4H)-dione]
melting point: 193 to 194 °C

CCCOc1ccc(CN/C=C2\C(=O)NC(=O)c3ccc(-c4ccc(F)c(F)c4)cc32)cc1O (as salt: sodium) [Example 194, (4Z)-6-(3,4-Difluorophenyl)-4-{[(3-hydroxy-4-propoxybenzyl)amino]methylene}-isoquinoline-1,3(2H,4H)-dione]
melting point: 227 to 228 °C

CCCOc1ccc(CN/C=C2\C(=O)NC(=O)c3ccc(-c4cccc(F)c4)cc32)cc1O (as salt: sodium) [Example 193, (4Z)-6-(3-Fluorophenyl)-4-{[(3-hydroxy-4-propoxybenzyl)amino]methylene}-isoquinoline-1,3(2H,4H)-dione]
melting point: 209 to 210 °C

COc1ccc(CN/C=C2\C(=O)NC(=O)c3ccc(-c4ccsc4)cc32)cc1O (as salt: hydrochloride) [Example 88, (4Z)-4-{[(3-Hydroxy-4-methoxybenzyl)amino]methylene}-6-thien-3-ylisoquinoline-1,3(2H,4H)-dione]
melting point: 219 to 220 °C

CN(C)C1CCN(Cc2ccc(N/C=C3\C(=O)NC(=O)c4ccc(-c5ccoc5)cc43)cc2)C1 (stereo not drawn) [Example 513, (4Z)-4-{[(4-{[3-(Dimethylamino)pyrrolidin-1-yl]methyl}phenyl)amino]methylene}-6-(3-furyl)isoquinoline-1,3(2H,4H)-dione]
IC50 (cyclin B/CDK1 enzyme; In Vitro Enzyme Assay, cyclin B/CDK1, read-out: CDK1 IC50): > 50 µM
IC50 (cyclin D1/cdk 4 enzyme; In Vitro Enzyme Assay, cyclin D1/cdk 4, read-out: CDK4 IC50): 0.17 µM
IC50 (BT474; [1]): 1.84 µM
IC50 (MCF-7; 3 days): 2.53 µM
IC50 (HCT-116; 3 days): 1.54 µM
IC50 (cyclin E/CDK2 enzyme; In Vitro Enzyme Assay, cyclin E/CDK2, read-out: CDK2 IC50): 13.2 µM
IC50 (LoVo; 3 days): 3.45 µM

CC(C)N1CCN(c2ccc(N/C=C3\C(=O)NC(=O)c4ccc(I)cc43)cn2)CC1 [Example 413]
IC50 (cyclin B/CDK1 enzyme; [2]): > 50 µM
IC50 (cyclin D1/cdk 4 enzyme; [3]): 0.19 µM
IC50 (BT474; [1]): 5 µM
IC50 (MCF-7; 3 days): 5.8 µM
IC50 (HCT-116; 3 days): 1.9 µM
IC50 (cyclin E/CDK2 enzyme; [4]): > 50 µM
IC50 (LoVo; 3 days): 3.3 µM

O=C1NC(=O)c2ccc(I)cc2/C1=C/Nc1ccc(N2CCN(CC3CC3)CC2)nc1 [Example 415, (4Z)-4-[({6-[4-(Cyclopropylmethyl)piperazin-1-yl]pyridin-3-yl}amino)methylene]-6-iodoisoquinoline-1,3(2H,4H)-dione]
IC50 (cyclin B/CDK1 enzyme; [2]): > 50 µM
IC50 (cyclin D1/cdk 4 enzyme; [3]): 1.5 µM
IC50 (BT474; [1]): 2.9 µM
IC50 (MCF-7; 3 days): 3.6 µM
IC50 (HCT-116; 3 days): 1.2 µM
IC50 (cyclin E/CDK2 enzyme; [4]): > 50 µM
IC50 (LoVo; 3 days): 2 µM

CN1CCN(C2CCC(NC=C3C(=O)NC(=O)c4ccc(I)cc43)CC2)CC1 (stereo not drawn) [Example 360, 6-Iodo-4-{[4-(4-methyl-piperazin-1-yl)-cyclohexylamino]-methylene}-4H-isoquinoline-1,3-dione]
IC50 (cyclin B/CDK1 enzyme; [2]): > 50 µM
IC50 (cyclin D1/cdk 4 enzyme; [3]): 0.46 µM
IC50 (BT474; [5]): 16 µM
IC50 (MCF-7; three days): 8.9 µM
IC50 (HCT-116; three days): 9.6 µM
IC50 (cyclin E/CDK2 enzyme; [4]): > 50 µM
IC50 (LoVo; three days): 9.6 µM

CN(C)CCS(=O)(=O)c1ccc(N/C=C2\C(=O)NC(=O)c3ccc(Br)cc32)cc1 [Example 243]
IC50 (cyclin B/CDK1 enzyme; [2]): 12.3 µM
IC50 (cyclin D1/cdk 4 enzyme; [3]): 1.2 µM
IC50 (BT474; [5]): 13 µM
IC50 (MCF-7; three days): 5 µM
IC50 (HCT-116; three days): 5 µM
IC50 (cyclin E/CDK2 enzyme; [4]): 1.9 µM
IC50 (LoVo; three days): 12 µM

C/C=C(\C)C(=O)Nc1ccc(CN/C=C2\C(=O)NC(=O)c3ccc(I)cc32)cc1O [Example 336, (2E)-N-[2-Hydroxy-4-({[(Z)-(6-iodo-1,3-dioxo-2,3-dihydroisoquinolin-4(1H)-ylidene)methyl]amino}methyl)phenyl]-2-methylbut-2-enamide]
IC50 (cyclin B/CDK1 enzyme; [2]): > 50 µM
IC50 (cyclin D1/cdk 4 enzyme; [3]): 0.04 µM
IC50 (BT474; [5]): 19 µM
IC50 (MCF-7; three days): 6.1 µM
IC50 (HCT-116; three days): 12 µM
IC50 (cyclin E/CDK2 enzyme; [4]): 5.8 µM
IC50 (LoVo; three days): 14 µM

CN1CCN(c2ccc(N/C=C3\C(=O)NC(=O)c4ccc(-c5cccc(F)c5)cc43)cc2)CC1 [Example 154, 6-(3-Fluoro-phenyl)-4-{[4-(4-methyl-piperazin-1-yl)-phenylamino]-methylene}-4H-isoquinoline-1,3-dione]
IC50 (cyclin B/CDK1 enzyme; [2]): > 50 µM
IC50 (cyclin D1/cdk 4 enzyme; [3]): 3.3 µM
IC50 (BT474; [5]): 3 µM
IC50 (MCF-7; three days): 2.7 µM
IC50 (HCT-116; three days): 2.2 µM
IC50 (cyclin E/CDK2 enzyme; [4]): > 50 µM
IC50 (LoVo; three days): 3.2 µM
